Legend:
T. gondii = conditions: 200 mg/kg per day for 10 days, previous studies; cited from earlier work
M. tuberculosis = conditions: literature; cited from earlier work
[1] = test system: C. albicans, A. fumigatus, C. neoformans; test: Liposome binding, summary statements over all three fungal species

CC[C@H]1OC(=O)[C@H](C)[C@@H](O[C@H]2C[C@@](C)(OC)[C@@H](O)[C@H](C)O2)[C@H](C)[C@@H](O[C@@H]2O[C@H](C)C[C@H](N(C)C)[C@H]2O)[C@](C)(O)C[C@@H](C)CN(C)[C@H](C)[C@@H](O)[C@]1(C)O [Free AZI, Azithromycin]
mouse survival (T. gondii): 100%

CO[C@H]1/C=C/O[C@@]2(C)Oc3c(C)c(O)c4c(O)c(c(/C=N/N5CCN(C)CC5)c(O)c4c3C2=O)NC(=O)/C(C)=C\C=C\[C@H](C)[C@H](O)[C@@H](C)[C@@H](O)[C@@H](C)[C@H](OC(C)=O)[C@@H]1C [free RIF, rifampin]
doses reported to control murine infections (M. tuberculosis): ~10 mg/kg/day

B1: DCS12: recombinant human DC-SIGN isoform, CRD fused to neck repeats 1 and 2, SEQ ID NO: 12 (protein)
chain: MAHHHHHHYGTGSGKGKGSGSGQSRQDAIYQNLTQLKAAVGELSEKSKLQEIYQELTQLKAAVERLCHPCPWEWTFFQGNCYFMSNSQRNWHDSITACKEVGAQLVVIKSAEEQNFLQLQSSRSNRFTWMGLSDLNQEGTWQWVDGSPLLPSFKQYWNRGEPNNVGEEDCAEFSGNGWNDDKCNLAKFWICKKSAASCSRDEEQFLSPAPATPNPPPA
bound more efficiently than untargeted AmB-LLs or BSA-AmB-LLs [1]: more than an order of magnitude
